Values quoted from earlier work, collected in patent US20240390444A1, “COMPOSITIONS AND METHODS LOWERING GLYCEMIC RESPONSE TO IMPROVE SLEEP QUALITY AND/OR SUBSEQUENT BEHAVIOURAL OUTCOMES” (SOCIETE DES PRODUITS NESTLE S.A., priority 2021, published 2024).

Conditions: 12.5 mg DNJ in capsule, co-ingestion with maltodextrin

OC[C@H]1NC[C@H](O)[C@@H](O)[C@@H]1O [DNJ, 1-deoxynojirimycin]
reduction of PPGR: 14%
